The source of these data is patent publication US20240341307A1, “FUNGICIDAL COMPOSITIONS” (SYNGENTA CROP PROTECTION AG, priority 2021, published 2024).

Assay type in all cases: cell-based
Common to all, as to details: alone

The test system of experiment [1] is Glomerella lapenarium Syn. Colletotrichum lapenarium. The experiment is described as follows: Glomerella lapenarium syn. Colletotrichum lapenarium (anthracnose of cucurbits) growth inhibition in nutrient broth, photometric after 72 hrs at 620 nm. The source says: A synergistic effect exists whenever the action of an active ingredient combination is greater than the sum of the actions of the individual components. The action to be expected E for a given active ingredient combination obeys the so-called COLBY formula and can be calculated as follows (COLBY, S. R. “Calculating synergistic and antagonistic responses of herbicide combination”. Weeds, Vol. 15, pages 20-22; 1967): • ppm=milligrams of active ingredient (=a.i.) per liter of spray mixture • X=% action by active ingredient A) using p ppm of active ingredient • Y=% action by active ingredient B) using q ppm of active ingredient. According to COLBY, the expected (additive) action of active ingredients A)+B) using p+q ppm of active ingredient is If the action actually observed (O) is greater than the expected action (E), then the action of the combination is super-additive, i.e. there is a synergistic effect. In mathematical terms, synergism corresponds to a positive value for the difference of (O-E). In the case of purely complementary addition of activities (expected activity), said difference (O-E) is zero. A negative value of said difference (O-E) signals a loss of activity compared to the expected activity. Glomerella lapenarium Syn. Colletotrichum lapenarium (Anthracnose of Cucurbits): Conidia of the fungus from cryogenic storage were directly mixed into nutrient broth ([…] potato dextrose broth). A DMSO solution of the test compounds was placed into a microtiter plate (96-well format) and the nutrient broth containing the fungal spores was added to it. The test plates were incubated at 24 C and the inhibition of growth was determined photometrically after 72 hrs at 620 nm.

A further experiment deals with Alternaria solani. The experiment is described as follows: Alternaria solani (early blight tomato/potato) growth inhibition in nutrient broth, microtiter plate, photometric after 48 hrs. From the text:
A synergistic effect exists whenever the action of an active ingredient combination is greater than the sum of the actions of the individual components. The action to be expected E for a given active ingredient combination obeys the so-called COLBY formula and can be calculated as follows (COLBY, S. R. “Calculating synergistic and antagonistic responses of herbicide combination”. Weeds, Vol. 15, pages 20-22; 1967): • ppm=milligrams of active ingredient (=a.i.) per liter of spray mixture • X=% action by active ingredient A) using p ppm of active ingredient • Y=% action by active ingredient B) using q ppm of active ingredient. According to COLBY, the expected (additive) action of active ingredients A)+B) using p+q ppm of active ingredient is If the action actually observed (O) is greater than the expected action (E), then the action of the combination is super-additive, i.e. there is a synergistic effect. In mathematical terms, synergism corresponds to a positive value for the difference of (O-E). In the case of purely complementary addition of activities (expected activity), said difference (O-E) is zero. A negative value of said difference (O-E) signals a loss of activity compared to the expected activity. Alternaria solani (Early Blight Tomato/Potato): Conidia of the fungus from cryogenic storage were directly mixed into nutrient broth (PDB potato dextrose broth). A DMSO solution of the test compounds was placed into a microtiter plate (96-well format) and the nutrient broth containing the fungal spores was added to it. The test plates were incubated at 24 C and the inhibition of growth was determined photometrically after 48 hrs.

In experiment [2] the test system is Mycosphaerella arachidis syn. Cercospora arachidicola. The experiment is described as follows: Mycosphaerella arachidis syn. Cercospora arachidicola (brown leaf spot of peanut) growth inhibition in nutrient broth, photometric after 5-6 days at 620 nm. The source says: A synergistic effect exists whenever the action of an active ingredient combination is greater than the sum of the actions of the individual components. The action to be expected E for a given active ingredient combination obeys the so-called COLBY formula and can be calculated as follows (COLBY, S. R. “Calculating synergistic and antagonistic responses of herbicide combination”. Weeds, Vol. 15, pages 20-22; 1967): • ppm=milligrams of active ingredient (=a.i.) per liter of spray mixture • X=% action by active ingredient A) using p ppm of active ingredient • Y=% action by active ingredient B) using q ppm of active ingredient. According to COLBY, the expected (additive) action of active ingredients A)+B) using p+q ppm of active ingredient is If the action actually observed (O) is greater than the expected action (E), then the action of the combination is super-additive, i.e. there is a synergistic effect. In mathematical terms, synergism corresponds to a positive value for the difference of (O-E). In the case of purely complementary addition of activities (expected activity), said difference (O-E) is zero. A negative value of said difference (O-E) signals a loss of activity compared to the expected activity. Mycosphaerella arachidis syn. Cercospora arachidicola (Brown leaf spot of peanut): Conidia of the fungus from cryogenic storage were directly mixed into nutrient broth (PDB potato dextrose broth). A DMSO solution of the test compounds was placed into a microtiter plate (96-well format) and the nutrient broth containing the fungal spores was added to it. The test plates were incubated at 24 C and the inhibition of growth was determined photometrically after 5-6 days at 620 nm

The next experiment relates to Botrytis cinerea. The experiment is described as follows: Botrytis cinerea (gray mould) growth inhibition in nutrient broth, microtiter plate, photometric after 72 hrs. The source says: A synergistic effect exists whenever the action of an active ingredient combination is greater than the sum of the actions of the individual components. The action to be expected E for a given active ingredient combination obeys the so-called COLBY formula and can be calculated as follows (COLBY, S. R. “Calculating synergistic and antagonistic responses of herbicide combination”. Weeds, Vol. 15, pages 20-22; 1967): • ppm=milligrams of active ingredient (=a.i.) per liter of spray mixture • X=% action by active ingredient A) using p ppm of active ingredient • Y=% action by active ingredient B) using q ppm of active ingredient. According to COLBY, the expected (additive) action of active ingredients A)+B) using p+q ppm of active ingredient is If the action actually observed (O) is greater than the expected action (E), then the action of the combination is super-additive, i.e. there is a synergistic effect. In mathematical terms, synergism corresponds to a positive value for the difference of (O-E). In the case of purely complementary addition of activities (expected activity), said difference (O-E) is zero. A negative value of said difference (O-E) signals a loss of activity compared to the expected activity. Botrytis cinerea (GRAY Mould): Conidia of the fungus from cryogenic storage were directly mixed into nutrient broth ([…] potato dextrose broth). A DMSO solution of the test compounds was placed into a microtiter plate (96-well format) and the nutrient broth containing the fungal spores was added to it. The test plates were incubated at 24 C and the inhibition of growth was determined photometrically after 72 hrs.

For the next experiment, the system named is Sclerotinia sclerotiorum. The experiment is described as follows: Sclerotinia sclerotiorum (cottony rot, white mold) growth inhibition in nutrient broth, photometric after 72 hrs at 620 nm. From the text:
A synergistic effect exists whenever the action of an active ingredient combination is greater than the sum of the actions of the individual components. The action to be expected E for a given active ingredient combination obeys the so-called COLBY formula and can be calculated as follows (COLBY, S. R. “Calculating synergistic and antagonistic responses of herbicide combination”. Weeds, Vol. 15, pages 20-22; 1967): • ppm=milligrams of active ingredient (=a.i.) per liter of spray mixture • X=% action by active ingredient A) using p ppm of active ingredient • Y=% action by active ingredient B) using q ppm of active ingredient. According to COLBY, the expected (additive) action of active ingredients A)+B) using p+q ppm of active ingredient is If the action actually observed (O) is greater than the expected action (E), then the action of the combination is super-additive, i.e. there is a synergistic effect. In mathematical terms, synergism corresponds to a positive value for the difference of (O-E). In the case of purely complementary addition of activities (expected activity), said difference (O-E) is zero. A negative value of said difference (O-E) signals a loss of activity compared to the expected activity. Sclerotinia sclerotiorum (Cottony Rot, White Mold, Etc.) Mycelial fragments of the fungus prepared from a fresh liquid culture were directly mixed into nutrient broth (PDB potato dextrose broth). A DMSO solution of the test compounds was placed into a microtiter plate (96-well format) and the nutrient broth containing the fungal spores was added to it. The test plates were incubated at 24 C and the inhibition of growth was determined photometrically after 72 hrs at 620 nm.

Consider `O=C(Nc1ccccc1F)c1ccc(-c2noc(C(F)(F)F)n2)cc1` [Flufenoxadiazam, flufenoxadiazam], for which the “Observed Activity (%)” value in experiment [1] (0.08 ppm), in experiment [1] (0.246 ppm), in experiment [1] (0.74 ppm) and in experiment [1] (2.22 ppm) was 20% each time.
In the case of `CCC(=O)Oc1c(OC)ccnc1C(=O)N[C@@H](C)C(=O)O[C@@H](C)[C@@H](C)c1ccccc1C` [Metarylpicoxamid, metarylpicoxamid], the “Observed Activity (%)” value is listed as 20% with Alternaria solani (0.22 ppm); 50% in the experiment with Alternaria solani (0.66 ppm); 50% in the experiment with Alternaria solani (2 ppm); 20% in experiment [2] (0.0246 ppm); 0% in the experiment with Botrytis cinerea (0.0246 ppm); 20% with Botrytis cinerea (0.074 ppm). The “Observed Activity (%)” value in the experiment on Botrytis cinerea (0.22 ppm) is 50%; in the experiment on Botrytis cinerea (0.66 ppm), 70%; in experiment [1] (2 ppm), 70%.
Turning to `O=C(NC1CCC1c1ccc(Cl)cc1Cl)c1cccnc1C(F)(F)F` (stereo in doubt) [Cyclobutrifluram, cyclobutrifluram], the “Observed Activity (%)” value was 0% with Alternaria solani (0.0008 ppm); 20% in the experiment with Alternaria solani (0.00246 ppm); 50% in the experiment with Alternaria solani (0.0074 ppm); 70% with Alternaria solani (0.022 ppm); 20% in the experiment with Botrytis cinerea (0.066 ppm); 20% in the experiment with Botrytis cinerea (0.074 ppm). Moreover, the “Observed Activity (%)” value in the experiment with Botrytis cinerea (0.2 ppm) came to 50%; in the experiment with Botrytis cinerea (0.22 ppm), 50%; in the experiment on Botrytis cinerea (0.66 ppm), 70%; in the experiment with Sclerotinia sclerotiorum (0.074 ppm), 20%.
With `N#Cc1ccc(Oc2ccc(C(F)(F)C(O)(Cn3[nH]cnc3=S)c3ccc(F)cc3F)nc2)cc1` (stereo not drawn) [Fluoxytioconazole, fluoxytioconazole], the “Observed Activity (%)” value in the experiment on Botrytis cinerea (0.22 ppm) was 0%; in the experiment on Botrytis cinerea (0.66 ppm), 0%; in the experiment with Botrytis cinerea (2 ppm) it was 0%; in the experiment on Botrytis cinerea (6 ppm) it was 20%.
Regarding `CON(C(=O)c1cn(C)nc1C(F)F)C(C)Cc1c(Cl)cc(Cl)cc1Cl` (stereo not drawn) [Pydiflumetofen, pydiflumetofen], the “Observed Activity (%)” value amounted to 0% in the experiment with Alternaria solani (0.0008 ppm); 50% with Alternaria solani (0.00246 ppm); 70% in the experiment with Alternaria solani (0.0074 ppm); 0% with Botrytis cinerea (0.0008 ppm); 20% in the experiment on Botrytis cinerea (0.00246 ppm); 50% in the experiment with Botrytis cinerea (0.0074 ppm). Moreover, the “Observed Activity (%)” value in the experiment on Botrytis cinerea (0.022 ppm) is given as 70%.
As for `CCS(=O)(=O)c1cc(C(F)(F)F)ccc1C(=O)N(C(C)=O)c1ccc(OC(F)(F)F)cc1C(=O)OC` [Compound A-1.1, Methyl 2-[acetyl-[2-ethylsulfonyl-4-(trifluoromethyl)benzoyl]amino]-5-(trifluoromethoxy)benzoate], the inhibition at 1 ppm in the experiment with Alternaria solani (Alternaria solani, 1 ppm, read-out: Observed Activity (%)) was 50%; in the experiment with Botrytis cinerea (Botrytis cinerea, 1 ppm, read-out: Observed Activity (%)), 50%; in experiment [1] (Colletotrichum, 1 ppm, read-out: Observed Activity (%)), 0%. Further, the inhibition at 2 ppm in the experiment with Alternaria solani (Alternaria solani, 2 ppm, read-out: Observed Activity (%)) amounted to 50%; with Botrytis cinerea (Botrytis cinerea, 2 ppm, read-out: Observed Activity (%)) it was 50%; in experiment [1] (Colletotrichum, 2 ppm, read-out: Observed Activity (%)), 0%. In addition, the inhibition at 10 ppm in experiment [2] (Mycosphaerella arachidis, 10 ppm, read-out: Observed Activity (%)) amounted to 0%; in the experiment with Botrytis cinerea (Botrytis cinerea, 10 ppm, read-out: Observed Activity (%)) it was 50%; in experiment [1] (Colletotrichum, 10 ppm, read-out: Observed Activity (%)), 70%; in the experiment with Sclerotinia sclerotiorum (Sclerotinia sclerotiorum, 10 ppm, read-out: Observed Activity (%)), 0%. Also, the inhibition at 20 ppm amounted to 0% in experiment [2] (Mycosphaerella arachidis, 20 ppm, read-out: Observed Activity (%)); 50% in the experiment with Botrytis cinerea (Botrytis cinerea, 20 ppm, read-out: Observed Activity (%)); 70% in experiment [1] (Colletotrichum, 20 ppm, read-out: Observed Activity (%)); 0% with Sclerotinia sclerotiorum (Sclerotinia sclerotiorum, 20 ppm, read-out: Observed Activity (%)).
